Laboratory results published in US10407445B2, “Hepatitis C virus inhibitors” (ENANTA PHARMACEUTICALS, INC., priority 2013, dated 2019).

How the values were obtained:
Assay type in all cases: cell-based
[1] = tested on: HCV genotype 1a replicon, NS5A M28T Q30H; test: Transient replication assay, GT1a NS5A M28T Q30H; conditions: Hepatitis C virus
[2] = tested on: HCV genotype 1a replicon, NS5A M28V Y93C; test: Transient replication assay, GT1a NS5A M28V Y93C; conditions: Hepatitis C virus
[3] = tested on: HCV genotype 1a replicon, NS5A Q30R Y93C; test: Transient replication assay, GT1a NS5A Q30R Y93C; conditions: Hepatitis C virus
[4] = tested on: HCV genotype 1a replicon, NS5A L31V; test: Transient replication assay, GT1a NS5A L31V; conditions: Hepatitis C virus
[5] = tested on: GT2a-6a-HK6a replicon; test: Stable replicon assay, comparison to daclatasvir, GT2a-6a-HK6a; conditions: Hepatitis C virus
From the text: The plasmid pSG-hRlucNeo-JFH1 was generated from pSG-Neo-JFH1 (Kato et al. 2003, Gastroentrology 125:1808-1817). A fragment containing the JFH-1 5′ NTR-hRluc-Neo gene and two unique restriction sites (AgeI and PmeI) was synthesized (Integrated DNA Technologies, Coralville, Iowa). The resulting plasmid was digested with AgeI and PmeI and the excised fragment (5′NTR-hRluc-Neo) was ligated into pSG-Neo-JFH1 digested with the same enzymes to generate pSG-hRlucNeo-JFH1. To allow expression of heterologous NS5A sequences, an NS5A shuttle vector was generated from pSG-Neo-JFH1, in which the entire coding sequence of NS5A plus the first eight codons of NS5B were replaced with an AfeI restriction site. This was done by Infusion cloning (Clontech, Mountain View, Calif.) from two PCR products that were generated using pSG-Neo-JFH1 as a template and the following primer pairs:
To express GT6a NS5A chimeric sequences a JFH1-based N-terminal NS5A (NS5A residues 2-107) shuttle vector was constructed by Infusion cloning from two PCR products that were generated using pSG-Neo-JFH1 as a template and the following primers: […]
Purified PCR products were inserted into an NsiI/SnaBI digested pSG-Neo-JFH1 vector by Infusion cloning following the manufacturer's instructions to generate pSG-Neo-JFH1-Nterm_5Ashuttle. […]

[6] = tested on: GT1b-Con1 replicon; test: Stable replicon assay, comparison to daclatasvir, GT1b-Con1; conditions: Hepatitis C virus; Replicon GT1b-Con1, NS5A genotype 1b
Procedure: Stable HCV replicon cell lines were grown in complete media (Dulbecco's modified Eagle medium [DMEM], 2 mM L-glutamine, 0.1 mM essential amino acids, 1 mM sodium pyruvate, 10% fetal bovine serum) with the addition 500 μg/ml […] (G418). Huh7-lunet cells were maintained in the same medium without the addition of G418. Cells were routinely passaged at a dilution of 1:5 two times per week. For stable replicon assays (GT1a-H77, GT1b-Con1, GT2a-JFH, GT2a-J6, GT2a-2b-MD2b, GT2a-2b-J8, GT2a-3a-S52, GT3a-552, GT4a-ED43, GT2a-5a-SA13, GT2a-6a-EUKH2, GT2a-6a-HK6a, and GT2a-7a-QC69), an 8-point 3-fold or half-log dilution series of compound was transferred into three replica 96-well plates containing 1×10^4 cells per well in phenol red-free complete media without G418. For the transient replication assay, Huh7-lunet cells in ice-cold phosphate buffered saline (PBS) were electroporated (Bio-Rad Gene pulser: 950 uF, 270V) with 10 μg purified in vitro transcribed HCV replicon RNA, followed by resuspension in phenol red-free complete media without G418 and plating (1×10^4 cells in 200 μL media/well) into three replica 96-well plates prior to compound addition (1 μl compound per well). For stable and transient replicon assays, luciferase activity of compound-treated cells was measured relative to DMSO-treated cells after 72 h incubation using RENILLA-GLO™ Luciferase Assay (Promega). […]

[7] = tested on: HCV genotype 1a replicon, NS5A M28V; test: Transient replication assay, GT1a NS5A M28V; conditions: Hepatitis C virus
[8] = tested on: HCV genotype 1a replicon, NS5A Y93H; test: Transient replication assay, GT1a NS5A Y93H; conditions: Hepatitis C virus
[9] = tested on: HCV genotype 1a replicon, NS5A K24E Q30K; test: Transient replication assay, GT1a NS5A K24E Q30K; conditions: Hepatitis C virus

Molecule `COC(=O)N[C@H](C(=O)N1CCC[C@H]1c1nc(-c2ccc(-c3ccc(-c4c[nH]c([C@@H]5CCCN5C(=O)[C@@H](NC(=O)OC)C(C)C)n4)cc3)cc2)c[nH]1)C(C)C` [Daclatasvir, reference compound] has an EC50 [1] of 733 nM, an EC50 [2] of 3.5 nM and an EC50 [3] of 26 nM. The EC50 [4] was 4.5 nM, the EC50 [5] was 5 pM and the EC50 [6] was 0.02 nM. The EC50 [7] was 7.3 pM, the EC50 [8] was 65 nM and the EC50 [9] was 20 nM.
Work on `COC(=O)N[C@H](C(=O)N1C[C@]2(CCCOC2)C[C@H]1c1ncc(-c2ccc(-c3ccc4c(ccc5nc([C@@H]6C[C@@H]7CCC[C@@H]7N6C(=O)[C@@H](NC(=O)OC)C(C)C)[nH]c54)c3)cc2)[nH]1)C(C)C` [Compound 16] yielded an EC50 [1] of 24 nM, an EC50 [2] of 1 nM and an EC50 [3] of 1.4 nM. It also gave an EC50 [4] of 0.15 nM, an EC50 [5] of 2 pM and an EC50 [6] of 0.008 nM. It also gave an EC50 [7] of 1.5 pM, an EC50 [8] of 10 nM and an EC50 [9] of 7.9 nM.
